The record followed here is paper PMC5218480 (PLoS ONE, 2017).

The assay concerns MV-4-11 cells. Nature of the assay: Gene expression microarray analysis (Affymetrix PrimeView) and GSEA. The assay is classed as cell-based, human. Also noted: RFU PODN (11730768_x_at) / Fold change /veh PODN (11730768_x_at) / RFU LINC00158 (11744669_a_at) / Fold change /veh LINC00158 (11744669_a_at) / RFU DUSP10 (11751237_a_at) / Fold change /veh DUSP10 (11751237_a_at) / RFU ID3 (11757404_x_at) / Fold change /veh ID3 (11757404_x_at) / RFU PLEKHG5 (11737974_s_at) / Fold change /veh PLEKHG5 (11737974_s_at) / RFU LRRC4B (11730491_at) / Fold change /veh LRRC4B (11730491_at) / RFU GIMAP4 (11747438_a_at) / Fold change /veh GIMAP4 (11747438_a_at) / RFU KRT8 (11758183_x_at) / Fold change /veh KRT8 (11758183_x_at) / RFU CNN1 (11734310_a_at) / Fold change /veh CNN1 (11734310_a_at) / RFU VPS37D (11726825_at) / Fold change /veh VPS37D (11726825_at) / RFU C10orf10 (11716522_x_at) / Fold change /veh C10orf10 (11716522_x_at) / RFU KIR2DL2 /// KIR2DL4 /// KIR2DL5A /// KIR2DL5B /// KIR2DS1 /// KIR2DS2 /// KIR2DS3 /// KIR2DS4 /// KIR3DL3 /// KIR3DL3 /// KIR3DS1 (11738374_at) / Fold change /veh KIR2DL2 /// KIR2DL4 /// KIR2DL5A /// KIR2DL5B /// KIR2DS1 /// KIR2DS2 /// KIR2DS3 /// KIR2DS4 /// KIR3DL3 /// KIR3DL3 /// KIR3DS1 (11738374_at) / RFU C1QL1 (11718748_at) / Fold change /veh C1QL1 (11718748_at) / RFU TMPRSS4 (11747572_a_at) / Fold change /veh TMPRSS4 (11747572_a_at) / RFU HAMP (11756126_x_at) / Fold change /veh HAMP (11756126_x_at) / RFU RNFT2 (11725882_a_at) / Fold change /veh RNFT2 (11725882_a_at) / RFU NR4A2 (11747474_a_at) / Fold change /veh NR4A2 (11747474_a_at) / RFU ABCC12 (11746883_a_at) / Fold change /veh ABCC12 (11746883_a_at) / RFU TMEM136 (11760407_x_at) / Fold change /veh TMEM136 (11760407_x_at) / RFU CLDN22 /// WWC2 (11732394_at) / Fold change /veh CLDN22 /// WWC2 (11732394_at) / RFU HLA-DPB1 (11760878_x_at) / Fold change /veh HLA-DPB1 (11760878_x_at) / RFU SPINT1 (11716480_a_at) / Fold change /veh SPINT1 (11716480_a_at) / RFU GAP43 (11754022_s_at) / Fold change /veh GAP43 (11754022_s_at) / RFU A4GNT (11735810_at) / Fold change /veh A4GNT (11735810_at) / RFU PRB3 (11715151_x_at) / Fold change /veh PRB3 (11715151_x_at) / RFU TUBB4B (11761932_at) / Fold change /veh TUBB4B (11761932_at) / RFU CAPN14 (11732068_a_at) / Fold change /veh CAPN14 (11732068_a_at) / RFU TMCC2 (11721928_a_at) / Fold change /veh TMCC2 (11721928_a_at) / RFU IRGQ (11745062_a_at) / Fold change /veh IRGQ (11745062_a_at) / RFU FAM174B (11720279_a_at) / Fold change /veh FAM174B (11720279_a_at) / RFU TMPRSS4 (11748680_a_at) / Fold change /veh TMPRSS4 (11748680_a_at) / RFU FAM212B (11763350_a_at) / Fold change /veh FAM212B (11763350_a_at) / RFU PLEKHG5 (11743358_a_at) / Fold change /veh PLEKHG5 (11743358_a_at) / RFU ZSCAN30 (11745921_a_at) / Fold change /veh ZSCAN30 (11745921_a_at) / RFU CMKLR1 (11741424_a_at) / Fold change /veh CMKLR1 (11741424_a_at) / RFU LOC101060620 /// MAPK8IP1 (11723275_at) / Fold change /veh LOC101060620 /// MAPK8IP1 (11723275_at) / RFU SPTSSB (11747773_x_at) / Fold change /veh SPTSSB (11747773_x_at) / RFU PRSS12 (11739890_at) / Fold change /veh PRSS12 (11739890_at) / RFU BIN1 (11741810_x_at) / Fold change /veh BIN1 (11741810_x_at) / RFU WNT11 (11732464_a_at) / Fold change /veh WNT11 (11732464_a_at) / RFU C10orf10 (11716521_a_at) / Fold change /veh C10orf10 (11716521_a_at) / RFU C5orf56 (11738089_at) / Fold change /veh C5orf56 (11738089_at) / RFU CYB561 (11721691_x_at) / Fold change /veh CYB561 (11721691_x_at) / RFU ANKRD19P (11752326_a_at) / Fold change /veh ANKRD19P (11752326_a_at) / RFU OR2T12 /// OR2T33 /// OR2T8 (11738714_s_at) / Fold change /veh OR2T12 /// OR2T33 /// OR2T8 (11738714_s_at) / RFU VCAN (11748164_a_at) / Fold change /veh VCAN (11748164_a_at) / RFU JSRP1 (11732532_at) / Fold change /veh JSRP1 (11732532_at) / RFU KRTAP10-11 (11738290_x_at) / Fold change /veh KRTAP10-11 (11738290_x_at) / RFU MYO3A (11730013_a_at) / Fold change /veh MYO3A (11730013_a_at) / RFU EBF3 (11725865_a_at) / Fold change /veh EBF3 (11725865_a_at) / RFU CAMK2N1 (11719241_x_at) / Fold change /veh CAMK2N1 (11719241_x_at) / RFU C5orf56 (11738088_a_at) / Fold change /veh C5orf56 (11738088_a_at) / RFU OLFML3 (11715873_a_at) / Fold change /veh OLFML3 (11715873_a_at) / RFU LOC100653217 /// NTM (11731650_a_at) / Fold change /veh LOC100653217 /// NTM (11731650_a_at) / RFU MAPK11 (11762145_a_at) / Fold change /veh MAPK11 (11762145_a_at) / RFU FIZ1 (11724087_x_at) / Fold change /veh FIZ1 (11724087_x_at) / RFU OASL (11726364_x_at) / Fold change /veh OASL (11726364_x_at) / RFU SOX15 (11748057_x_at) / Fold change /veh SOX15 (11748057_x_at) / RFU CD79A (11719716_a_at) / Fold change /veh CD79A (11719716_a_at) / RFU HIST1H1D (11736915_at) / Fold change /veh HIST1H1D (11736915_at) / RFU CASKIN2 (11723855_a_at) / Fold change /veh CASKIN2 (11723855_a_at) / RFU LOC730098 (11760151_x_at) / Fold change /veh LOC730098 (11760151_x_at) / RFU OR4N2 (11742367_at) / Fold change /veh OR4N2 (11742367_at) / RFU PRRT2 (11749266_a_at) / Fold change /veh PRRT2 (11749266_a_at) / RFU SNX32 (11753110_a_at) / Fold change /veh SNX32 (11753110_a_at) / RFU CDHR5 (11726645_a_at) / Fold change /veh CDHR5 (11726645_a_at) / RFU RCAN1 (11760418_a_at) / Fold change /veh RCAN1 (11760418_a_at) / RFU FAM167A (11723789_a_at) / Fold change /veh FAM167A (11723789_a_at) / RFU FAM26E (11764081_at) / Fold change /veh FAM26E (11764081_at) / RFU ISYNA1 (11749810_s_at) / Fold change /veh ISYNA1 (11749810_s_at) / RFU ACY1 (11761880_at) / Fold change /veh ACY1 (11761880_at) / RFU 11764098_at / Fold change /veh 11764098_at / RFU SAMD14 (11745864_x_at) / Fold change /veh SAMD14 (11745864_x_at) / RFU NPB (11741838_a_at) / Fold change /veh NPB (11741838_a_at) / RFU TMPRSS6 (11731388_a_at) / Fold change /veh TMPRSS6 (11731388_a_at) / RFU KRTAP10-2 (11738614_at) / Fold change /veh KRTAP10-2 (11738614_at) / RFU ARHGAP8 /// PRR5-ARHGAP8 (11727945_x_at) / Fold change /veh ARHGAP8 /// PRR5-ARHGAP8 (11727945_x_at) / RFU KRTAP5-7 /// NADSYN1 (11734609_at) / Fold change /veh KRTAP5-7 /// NADSYN1 (11734609_at) / RFU RASL12 (11751679_a_at) / Fold change /veh RASL12 (11751679_a_at) / RFU CDKN2B (11736163_a_at) / Fold change /veh CDKN2B (11736163_a_at) / RFU PRF1 (11729649_at) / Fold change /veh PRF1 (11729649_at) / RFU, ZNF638 /// ZNF638-IT1 / Fold change vs veh, ZNF638 /// ZNF638-IT1 / RFU, PANK3 / Fold change vs veh, PANK3 / RFU, SH3YL1 / Fold change vs veh, SH3YL1 / RFU, ZEB2 / Fold change vs veh, ZEB2 / RFU, NRIP1 / Fold change vs veh, NRIP1 / RFU, PTTG1IP / Fold change vs veh, PTTG1IP / RFU, CAPN2 / Fold change vs veh, CAPN2 / RFU, MED14 / Fold change vs veh, MED14 / RFU, SNORA58 / Fold change vs veh, SNORA58 / RFU, C1orf63 / Fold change vs veh, C1orf63 / RFU, LRRFIP1 / Fold change vs veh, LRRFIP1 / RFU, NDUFAF7 / Fold change vs veh, NDUFAF7 / RFU, SLC12A2 / Fold change vs veh, SLC12A2 / RFU, IBTK / Fold change vs veh, IBTK / RFU, ESF1 / Fold change vs veh, ESF1 / Fold change vs veh, TMEM50B / RFU, TAOK1 / Fold change vs veh, TAOK1 / RFU, ACBD3 / Fold change vs veh, ACBD3 / RFU, TMA16 / Fold change vs veh, TMA16 / RFU, RWDD3 / Fold change vs veh, RWDD3 / RFU, BCAT1 / Fold change vs veh, BCAT1 / RFU, EDEM3 / Fold change vs veh, EDEM3 / RFU, TMEM33 / Fold change vs veh, TMEM33 / RFU, WDR75 / Fold change vs veh, WDR75 / RFU, AHCTF1 / Fold change vs veh, AHCTF1 / RFU, TFRC / Fold change vs veh, TFRC / RFU, ZDHHC17 / Fold change vs veh, ZDHHC17 / RFU, NOM1 / Fold change vs veh, NOM1 / RFU, ARL8B / Fold change vs veh, ARL8B / RFU, ZBTB11 / Fold change vs veh, ZBTB11 / RFU, TAMM41 / Fold change vs veh, TAMM41 / RFU, KIAA1704 /// LOC100996395 / Fold change vs veh, KIAA1704 /// LOC100996395 / RFU, ING1 / Fold change vs veh, ING1 / RFU, TRMT61B / Fold change vs veh, TRMT61B / RFU, FUBP3 / Fold change vs veh, FUBP3 / RFU, TP53 / Fold change vs veh, TP53 / RFU, TNKS2 / Fold change vs veh, TNKS2 / RFU, ZFP14 / Fold change vs veh, ZFP14 / RFU, ACTR2 / Fold change vs veh, ACTR2 / RFU, PPP3R1 / Fold change vs veh, PPP3R1 / RFU, PIK3R1 / Fold change vs veh, PIK3R1 / RFU, HNRNPA1 / Fold change vs veh, HNRNPA1 / RFU, RNF170 / Fold change vs veh, RNF170 / RFU, ZNF28 / Fold change vs veh, ZNF28 / RFU, RNGTT / Fold change vs veh, RNGTT / RFU, OGT / Fold change vs veh, OGT / RFU, BRD1 / Fold change vs veh, BRD1 / RFU, MARS / Fold change vs veh, MARS / RFU, ZNF655 / Fold change vs veh, ZNF655 / RFU, FAHD1 / Fold change vs veh, FAHD1 / RFU, BDP1 / Fold change vs veh, BDP1 / RFU, LRRCC1 / Fold change vs veh, LRRCC1 / RFU, ARID1A / Fold change vs veh, ARID1A / RFU, ZNF146 / Fold change vs veh, ZNF146 / RFU, ZNF330 / Fold change vs veh, ZNF330 / RFU, GPN3 / Fold change vs veh, GPN3 / RFU, C9orf123 / Fold change vs veh, C9orf123 / RFU, N4BP2L2 / Fold change vs veh, N4BP2L2 / RFU, ARFIP1 / Fold change vs veh, ARFIP1 / RFU, FAM179B / Fold change vs veh, FAM179B / RFU, BCL10 / Fold change vs veh, BCL10 / RFU, UHRF1BP1L / Fold change vs veh, UHRF1BP1L / RFU, BET1 / Fold change vs veh, BET1 / RFU, CNOT2 / Fold change vs veh, CNOT2 / RFU, ZNF268 / Fold change vs veh, ZNF268 / Fold change vs veh, ZNF507 / RFU, DGCR2 / Fold change vs veh, DGCR2 / RFU, WDSUB1 / Fold change vs veh, WDSUB1 / Fold change vs veh, HSP90B1 /// MIR3652 / RFU, ADSS / Fold change vs veh, ADSS / RFU, GK / Fold change vs veh, GK / RFU, ZNF148 / Fold change vs veh, ZNF148 / RFU, TAF9 / Fold change vs veh, TAF9 / RFU, SLC1A5 / Fold change vs veh, SLC1A5 / RFU, SLMO2 / Fold change vs veh, SLMO2 / RFU, ABCC4 / Fold change vs veh, ABCC4 / RFU, LOC101060439 /// RAP1B / Fold change vs veh, LOC101060439 /// RAP1B / RFU, RFX7 / Fold change vs veh, RFX7 / RFU, GTPBP10 / Fold change vs veh, GTPBP10 / RFU, CNEP1R1 / Fold change vs veh, CNEP1R1 / RFU, BIVM-ERCC5 /// ERCC5 / Fold change vs veh, BIVM-ERCC5 /// ERCC5 / RFU, ILF3 / Fold change vs veh, ILF3 / RFU 11762660_at / Fold change /veh 11762660_at / RFU VCAN (11757783_s_at) / Fold change /veh VCAN (11757783_s_at) / RFU DDX43 (11728927_at) / Fold change /veh DDX43 (11728927_at) / RFU KRT8 (11758188_x_at) / Fold change /veh KRT8 (11758188_x_at) / RFU NKD1 (11759106_at) / Fold change /veh NKD1 (11759106_at) / RFU SRD5A1 (11742802_a_at) / Fold change /veh SRD5A1 (11742802_a_at) / RFU TPSAB1 /// TPSB2 (11721975_s_at) / Fold change /veh TPSAB1 /// TPSB2 (11721975_s_at) / RFU GSTM3 (11746129_a_at) / Fold change /veh GSTM3 (11746129_a_at) / RFU IL23R (11737362_x_at) / Fold change /veh IL23R (11737362_x_at) / RFU TMEM51 (11727254_a_at) / Fold change /veh TMEM51 (11727254_a_at) / RFU PIWIL2 (11732686_x_at) / Fold change /veh PIWIL2 (11732686_x_at) / RFU ORM1 (11744905_x_at) / Fold change /veh ORM1 (11744905_x_at) / RFU CCDC152 (11743942_at) / Fold change /veh CCDC152 (11743942_at) / RFU ECM1 (11717891_a_at) / Fold change /veh ECM1 (11717891_a_at) / RFU IL23R (11748794_a_at) / Fold change /veh IL23R (11748794_a_at) / RFU TNFAIP8L3 (11732012_x_at) / Fold change /veh TNFAIP8L3 (11732012_x_at) / RFU MBOAT4 (11741988_at) / Fold change /veh MBOAT4 (11741988_at) / RFU 11764193_at / Fold change /veh 11764193_at / RFU TMEM53 (11763286_at) / Fold change /veh TMEM53 (11763286_at) / RFU MAGEB2 (11727129_at) / Fold change /veh MAGEB2 (11727129_at) / RFU TMEM200A (11744735_a_at) / Fold change /veh TMEM200A (11744735_a_at) / RFU CCDC152 (11751479_a_at) / Fold change /veh CCDC152 (11751479_a_at) / RFU FAM211A (11726209_a_at) / Fold change /veh FAM211A (11726209_a_at) / RFU RGS16 (11746705_a_at) / Fold change /veh RGS16 (11746705_a_at) / RFU VCAN (11755009_s_at) / Fold change /veh VCAN (11755009_s_at) / RFU RHOB (11743442_s_at) / Fold change /veh RHOB (11743442_s_at) / RFU RGS16 (11720943_a_at) / Fold change /veh RGS16 (11720943_a_at) / RFU RGS16 (11720944_at) / Fold change /veh RGS16 (11720944_at) / RFU, VPS4B / Fold change vs veh, VPS4B / RFU, CREB1 / Fold change vs veh, CREB1 / RFU, DNAJC13 / Fold change vs veh, DNAJC13 / RFU, GNAQ / Fold change vs veh, GNAQ / RFU, CDK5R1 / Fold change vs veh, CDK5R1 / RFU, ZRANB3 / Fold change vs veh, ZRANB3 / RFU, CUL4A / Fold change vs veh, CUL4A / RFU, CCNY / Fold change vs veh, CCNY / RFU, UFL1 / Fold change vs veh, UFL1 / RFU, COG3 / Fold change vs veh, COG3 / RFU, DIAPH2 / Fold change vs veh, DIAPH2 / RFU, SKA2 / Fold change vs veh, SKA2 / RFU, AFF3 / Fold change vs veh, AFF3 / RFU, LMF1 / Fold change vs veh, LMF1 / RFU, IPO11 / Fold change vs veh, IPO11 / RFU, DFFB / Fold change vs veh, DFFB / RFU, FOXP1 / Fold change vs veh, FOXP1 / RFU, CARD8 / Fold change vs veh, CARD8 / RFU, STRN3 / Fold change vs veh, STRN3 / RFU, ADK / Fold change vs veh, ADK / RFU, RASSF2 / Fold change vs veh, RASSF2 / RFU, WIPF1 / Fold change vs veh, WIPF1 / RFU, LARP1B / Fold change vs veh, LARP1B / RFU, RASA1 / Fold change vs veh, RASA1 / RFU, RB1 / Fold change vs veh, RB1 / RFU, PPFIA1 / Fold change vs veh, PPFIA1 / RFU, MAT2A / Fold change vs veh, MAT2A / RFU, CCT5 / Fold change vs veh, CCT5 / RFU, WDR92 / Fold change vs veh, WDR92 / RFU, CUX1 / Fold change vs veh, CUX1 / RFU, TTC7A / Fold change vs veh, TTC7A / RFU, TMEM135 / Fold change vs veh, TMEM135 / RFU, DEPTOR / Fold change vs veh, DEPTOR / RFU, CPM / Fold change vs veh, CPM / RFU, DNAJB6 / Fold change vs veh, DNAJB6 / RFU, CACNA2D3 / Fold change vs veh, CACNA2D3 / RFU, DTX4 / Fold change vs veh, DTX4 / RFU, TFCP2 / Fold change vs veh, TFCP2 / RFU, GMCL1 /// GMCL1P1 / Fold change vs veh, GMCL1 /// GMCL1P1 / RFU, AEBP2 / Fold change vs veh, AEBP2 / RFU, SNHG1 /// SNORD22 /// SNORD25 /// SNORD26 /// SNORD27 /// SNORD28 /// SNORD29 /// SNORD31 / Fold change vs veh, SNHG1 /// SNORD22 /// SNORD25 /// SNORD26 /// SNORD27 /// SNORD28 /// SNORD29 /// SNORD31 / Fold change (Aza/veh), C12orf56 (ProbeSet 11735607_a_at) / Fold change (ACY-1035/veh), C12orf56 (ProbeSet 11735607_a_at) / Fold change (Aza/veh), FGFR1OP (ProbeSet 11751329_s_at) / Fold change (ACY-1035/veh), FGFR1OP (ProbeSet 11751329_s_at) / Fold change (Aza/veh), VPS36 (ProbeSet 11739960_a_at) / Fold change (ACY-1035/veh), VPS36 (ProbeSet 11739960_a_at) / RFU SYPL1 (11715823_x_at) / Fold change /veh SYPL1 (11715823_x_at) / RFU IGFBP7 (11715501_s_at) / Fold change /veh IGFBP7 (11715501_s_at) / RFU REEP3 (11722064_at) / Fold change /veh REEP3 (11722064_at) / RFU IGLL1 (11728026_x_at) / Fold change /veh IGLL1 (11728026_x_at): dose or concentration left out as unconfirmed. Particulars: MV-4-11 cells, 48 hours.

With `Nc1ncn([C@@H]2O[C@H](CO)[C@@H](O)[C@H]2O)c(=O)n1` [azacitidine], the “Fold change /veh TUBB4B (11761932_at)” value turned out to be 1.00.
